Our source for the EC50, IC50 and AC50 values is ChEMBL document CHEMBL1201862, “PubChem BioAssay data set” (2004).

The source made the active and inactive calls.

Assay [1] concerns HEK293. Put plainly: NOD1 signaling inhibitors, primary screen, cell-based, luminescence, uHTS (AID 1578). It counts as functional. The note with it: Homo sapiens.
Assay [2] deals with HEK293. Put plainly: NOD2 signaling inhibitors in MDP-stimulated cells, cell-based, uHTS, luminescence (AID 2001). It counts as functional. The note with it: Homo sapiens.
The subject of assay [3] is HEK293. Kind of assay: cells. It counts as functional, cell-based. The note with it: Homo sapiens.
Assay [4] deals with Nucleotide-binding oligomerization domain-containing protein 2 (Homo sapiens, UniProt Q9HC29). Kind of assay: NOD2 signaling inhibitors, cell-based, luminescence, uHTS, HEK293 (AID 1566). It counts as functional.
The target of another assay is Beta-galactosidase (Escherichia coli, UniProt Q8VNN2). Put plainly: beta-galactosidase enzyme inhibitors and activators, dose response, artefact control for CCR6 antagonist project, biochemical, E. coli enzyme, set 3 (AID 504712). It counts as functional.
In assay [5] the test system is HEK293. Kind of assay: cells. It counts as functional, cell-based. The note with it: Homo sapiens. The source holds these as a separate data set.
Assay [6] relates to HEK293. Put plainly: cells. It counts as functional, cell-based. The note with it: Homo sapiens. This is another data set of the same source.
Assay [7] concerns the target T1, Coagulation factor XII (Homo sapiens, UniProt P00748).
T1 sequence (P00748 whole entry): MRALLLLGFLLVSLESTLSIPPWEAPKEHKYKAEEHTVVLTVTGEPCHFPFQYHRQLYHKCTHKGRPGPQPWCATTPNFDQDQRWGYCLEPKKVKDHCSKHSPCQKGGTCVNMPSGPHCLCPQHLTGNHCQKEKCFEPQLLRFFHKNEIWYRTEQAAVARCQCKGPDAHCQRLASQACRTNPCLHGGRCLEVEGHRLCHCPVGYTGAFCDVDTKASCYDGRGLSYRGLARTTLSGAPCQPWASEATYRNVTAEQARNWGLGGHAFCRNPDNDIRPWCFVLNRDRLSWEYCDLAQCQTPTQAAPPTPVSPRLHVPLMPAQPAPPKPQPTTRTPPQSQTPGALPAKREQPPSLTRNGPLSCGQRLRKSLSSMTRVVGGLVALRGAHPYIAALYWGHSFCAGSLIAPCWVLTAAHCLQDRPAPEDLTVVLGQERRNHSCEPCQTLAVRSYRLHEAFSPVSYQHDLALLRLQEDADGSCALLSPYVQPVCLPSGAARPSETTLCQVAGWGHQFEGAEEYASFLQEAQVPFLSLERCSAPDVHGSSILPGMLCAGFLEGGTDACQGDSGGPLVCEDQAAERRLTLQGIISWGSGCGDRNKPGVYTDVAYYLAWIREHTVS
It counts as functional.

The target of assay [8] is T2, Replicative DNA helicase DnaB (Mycobacterium tuberculosis, UniProt P9WMR3).
T2 sequence (P9WMR3 whole entry): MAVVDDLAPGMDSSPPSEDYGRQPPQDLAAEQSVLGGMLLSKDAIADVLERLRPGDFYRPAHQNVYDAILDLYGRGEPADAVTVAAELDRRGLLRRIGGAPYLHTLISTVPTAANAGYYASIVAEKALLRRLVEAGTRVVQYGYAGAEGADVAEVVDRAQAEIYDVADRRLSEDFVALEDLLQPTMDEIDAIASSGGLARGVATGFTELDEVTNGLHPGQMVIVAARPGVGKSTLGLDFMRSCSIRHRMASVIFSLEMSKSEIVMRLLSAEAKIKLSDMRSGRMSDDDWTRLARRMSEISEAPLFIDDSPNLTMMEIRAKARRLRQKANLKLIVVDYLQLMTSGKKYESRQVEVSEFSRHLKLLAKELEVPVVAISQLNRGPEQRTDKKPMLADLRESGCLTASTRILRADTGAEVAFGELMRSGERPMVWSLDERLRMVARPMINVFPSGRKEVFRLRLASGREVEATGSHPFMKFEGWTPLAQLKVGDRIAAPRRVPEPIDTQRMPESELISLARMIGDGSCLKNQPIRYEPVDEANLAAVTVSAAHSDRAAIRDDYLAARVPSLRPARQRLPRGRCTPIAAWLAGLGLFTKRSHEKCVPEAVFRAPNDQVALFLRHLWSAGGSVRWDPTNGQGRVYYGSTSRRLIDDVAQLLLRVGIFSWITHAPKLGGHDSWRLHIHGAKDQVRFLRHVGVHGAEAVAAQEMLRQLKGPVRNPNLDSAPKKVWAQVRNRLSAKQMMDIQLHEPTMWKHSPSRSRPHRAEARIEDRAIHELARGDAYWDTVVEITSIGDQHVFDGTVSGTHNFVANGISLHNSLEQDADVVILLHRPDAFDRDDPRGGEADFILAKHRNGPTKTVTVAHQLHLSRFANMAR
Kind of assay: DnaB intein splicing inhibitors, dose response, biochemical, cell-free fluorescence (AID 449749). It counts as functional.

In a further assay the target is T3, Protein RecA (Mycobacterium tuberculosis, UniProt P9WHJ3).
T3 sequence (P9WHJ3 whole entry): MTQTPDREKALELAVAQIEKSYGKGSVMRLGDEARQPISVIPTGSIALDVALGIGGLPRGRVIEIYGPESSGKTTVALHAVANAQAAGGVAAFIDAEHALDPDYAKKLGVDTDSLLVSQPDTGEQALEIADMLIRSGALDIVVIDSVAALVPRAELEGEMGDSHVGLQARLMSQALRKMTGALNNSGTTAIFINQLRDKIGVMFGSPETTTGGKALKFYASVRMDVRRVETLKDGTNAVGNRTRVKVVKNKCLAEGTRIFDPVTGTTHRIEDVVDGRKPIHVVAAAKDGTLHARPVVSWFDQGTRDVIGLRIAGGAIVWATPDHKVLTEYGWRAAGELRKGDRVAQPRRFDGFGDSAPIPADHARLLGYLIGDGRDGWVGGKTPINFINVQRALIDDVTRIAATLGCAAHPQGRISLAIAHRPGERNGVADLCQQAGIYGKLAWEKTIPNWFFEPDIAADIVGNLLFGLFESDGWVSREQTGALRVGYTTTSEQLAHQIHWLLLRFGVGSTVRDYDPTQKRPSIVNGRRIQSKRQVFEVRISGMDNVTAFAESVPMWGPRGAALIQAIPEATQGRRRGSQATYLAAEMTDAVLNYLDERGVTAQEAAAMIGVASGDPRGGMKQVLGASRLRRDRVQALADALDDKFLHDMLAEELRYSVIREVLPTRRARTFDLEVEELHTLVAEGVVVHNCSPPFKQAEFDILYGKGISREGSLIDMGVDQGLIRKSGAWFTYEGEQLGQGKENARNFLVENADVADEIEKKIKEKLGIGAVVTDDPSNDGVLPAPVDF
Kind of assay: Fluorescence Cell-Free Homogeneous Dose Retest to Identify Inhibitors of RecA-Intein Splicing Activity. [Related pubchem assays (depositor defined):AID2097, AID2223, AID489010, AID492950]. It counts as functional.

Another assay has as its target T4, Bcl-2-related protein A1 (Mus musculus, UniProt Q07440).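 Also: confirmatory dose–response counterscreen on Bfl-1, used to check hits from a UBC13 polyubiquitin inhibitor campaign.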
T4 sequence (Q07440 whole entry): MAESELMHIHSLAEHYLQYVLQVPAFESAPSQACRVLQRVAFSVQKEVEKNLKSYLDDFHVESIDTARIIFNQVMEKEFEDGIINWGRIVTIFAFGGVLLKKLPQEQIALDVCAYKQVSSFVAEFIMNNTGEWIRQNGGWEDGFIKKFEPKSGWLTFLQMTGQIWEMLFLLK
It counts as functional.

The target of assay [9] is T5, Ubiquitin-conjugating enzyme E2 N (Homo sapiens, UniProt P61088).
T5 sequence (P61088 whole entry): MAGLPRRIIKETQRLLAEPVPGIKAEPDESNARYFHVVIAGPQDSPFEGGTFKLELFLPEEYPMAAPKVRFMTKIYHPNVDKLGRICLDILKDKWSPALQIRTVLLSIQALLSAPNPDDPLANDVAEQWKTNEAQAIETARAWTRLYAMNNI
It counts as functional.

Assay [10] concerns the target T5, Ubiquitin-conjugating enzyme E2 N. It counts as functional. This is another data set of the same source.
In assay [11] the target is T1, Coagulation factor XII. Kind of assay: FXIIa inhibitor potency, concentration-response, biochemical (AID 716). It counts as functional.
In assay [12] the target is T6, Mannose-6-phosphate isomerase (Homo sapiens, UniProt P34949).
T6 sequence (P34949 whole entry): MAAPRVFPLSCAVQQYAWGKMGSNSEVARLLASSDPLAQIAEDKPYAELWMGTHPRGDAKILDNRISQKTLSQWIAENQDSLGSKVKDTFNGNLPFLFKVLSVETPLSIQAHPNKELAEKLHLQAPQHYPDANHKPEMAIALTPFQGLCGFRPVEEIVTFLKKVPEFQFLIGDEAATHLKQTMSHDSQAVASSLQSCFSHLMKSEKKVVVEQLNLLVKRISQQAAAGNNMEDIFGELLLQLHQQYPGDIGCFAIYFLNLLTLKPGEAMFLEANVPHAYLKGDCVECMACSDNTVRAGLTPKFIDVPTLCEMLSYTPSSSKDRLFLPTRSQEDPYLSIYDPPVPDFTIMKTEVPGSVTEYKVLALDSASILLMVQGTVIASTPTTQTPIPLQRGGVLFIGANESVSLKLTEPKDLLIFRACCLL
Put plainly: human PMI inhibitors, high substrate, primary screen, biochemical, fluorescence intensity, high mannose 6-phosphate (AID 1220).

The target in another assay is Troponin, cardiac muscle (Homo sapiens, UniProt P19429+P45379+P63316). Kind of assay: Fluorescence-based biochemical high throughput dose response assay for activators of the calcium sensitivity of cardiac Regulated Thin Filaments (RTF). [Related pubchem assays (depositor defined):AID493008, AID493018, AID504382, AID504383]. It counts as protein-complex assay.
For assay [13], the target named is E3 ubiquitin-protein ligase XIAP (Homo sapiens, UniProt P98170). Put plainly: Counter Screen using XIAP-Bir3 for Chemical Antagonists of Bir1/2 domains of IAP-family anti-apoptotic proteins. [Related pubchem assays (depositor defined):AID1018, AID1449, AID1514, AID1638, AID1749, AID1750, AID488957, AID488963]. In general terms: Counterscreens check selectivity or assay interference.

In assay [14] the target is Female germline-specific tumor suppressor gld-1 (Caenorhabditis elegans, UniProt Q17339). Put plainly: inhibitors of GLD-1 binding to TGE RNA, dose response, biochemical, fluorescence polarization, C. elegans (AID 2802).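 Also: fluorescence polarization of labeled TGE RNA bound by purified gld-1 protein.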
For another assay, the target named is Protein Rev (Human immunodeficiency virus type 1 group M subtype B (isolate HXB2)(HIV-1), UniProt P04618). Put plainly: inhibitors of Rev binding to RRE RNA, dose response, biochemical, fluorescence polarization, HIV-1 (AID 434976). Further details: species or system Human immunodeficiency virus 1.
For a further assay, the target named is Hexokinase (Trypanosoma brucei, UniProt Q38C41). Put plainly: Confirmation assay for inhibitors of Trypanosoma brucei hexokinase 1-Analogue-first series. [Related pubchem assays (depositor defined):AID1430, AID1632, AID2516, AID2560, AID2579, AID2600, AID449725, AID492951]. It counts as functional.

Broadly, the EC50 is the concentration needed to bring the measured effect to its halfway point. As usually defined, the IC50 is the concentration needed to halve the response being measured. The term AC50 denotes the concentration at which the activity in the assay is half-maximal.

As for `O=C(NC(=S)N1CCN(Cc2ccc3c(c2)OCO3)CC1)c1cccc(Br)c1`, the EC50 with HEK293 [1] was 7.03 µM (active); in assay [4], > 20 µM (inactive). Further, the IC50 was 6.54 µM (inactive) in the assay with HEK293 [2]; > 20 µM (inactive) in the assay on HEK293 [3]; > 66.6 µM (inactive) at Beta-galactosidase; 16.1 µM (active) with HEK293 [5]; > 20 µM (inactive) in the assay with HEK293 [6].

Regarding `CC(=O)Nc1ccc(OC(=O)c2ccco2)cc1`, at Coagulation factor XII [7], the IC50 was > 50 µM (inactive). Besides, in [8], the AC50 is 93.9 µM (active). Also, the EC50 on Protein RecA was 12.1 µM (active).

For the molecule `COc1cc2c(cc1OC)C(c1ccc(-c3cc(Cl)ccc3Cl)o1)=NCC2`, the EC50 (with HEK293 [1]; in assay [4]) was > 20 µM (inactive) each time. Besides, the IC50 in the assay on HEK293 [2] was 2.75 µM (active); with HEK293 [3] it was > 20 µM (inactive); in the assay on HEK293 [5], 5.36 µM (active); in the assay on HEK293 [6], > 20 µM (inactive).

For `O=C(CCNC(=O)Cn1ccc2ccccc2c1=O)NCCN1CCN(c2cccc(Cl)c2)CC1`, the IC50 at Bcl-2-related protein A1 was > 20 µM (inactive); in assay [9], 8.08 µM (active); in assay [10] it was 4.45 µM (active).

As to `CN1CC2(Cc3c1ccc1ccccc31)C(=O)OC(C)(C)OC2=O`, the IC50 at Coagulation factor XII [11] was > 50 µM (inactive); in assay [12], > 50 µM (not active).

Take `COc1ccc(S(=O)(=O)N2CN(Cc3ccco3)c3nc4ccccc4nc32)cc1`: the EC50 on Troponin, cardiac muscle is > 71.5 µM (inactive).

Regarding `COc1ccc(CNc2nc(NCc3ccc(OC)cc3)n(S(C)(=O)=O)n2)cc1`, the IC50 on Coagulation factor XII [11] was > 50 µM (inactive).

As for `COCCOC(=O)c1sc(=S)n(CCOC)c1N`, the IC50 in [13] is 0.699 µM (active); in assay [14] it was 5.31 µM (active); on Protein Rev, 11.1 µM (not active).

In the case of `CC12CCC(C(=O)NC(c3ccccc3)c3ccccc3)(OC1=O)C2(C)C` (stereo not drawn), at Coagulation factor XII [7], the IC50 is > 50 µM (inactive).

Regarding `COc1ccc(C(=O)Nc2ccc(Cl)cc2C(=O)O)cc1`, the IC50 on Hexokinase is > 25 µM (inactive).
